Measurements published in ChEMBL document CHEMBL2203048, “Synthesis and biological evaluation of a water-soluble derivative of the potent V-ATPase inhibitor archazolid” (Bioorg Med Chem Lett, 2012).
The source made the active and inactive calls. The rule behind the calls is not given here.

Key:
[1] = biological target: V-type proton ATPase subunit C (Manduca sexta) (UniProt Q9U5N1); experiment: Binding affinity to tobacco hornworm V-ATPase c subunit in 4:4:1 CDCl3:MeOH-d4:D2O by NMR analysis
[2] = biological target: V-type proton ATPase subunit C (Manduca sexta) (UniProt Q9U5N1); experiment: Inhibition of tobacco hornworm V-ATPase c subunit
[3] = Solubility in 2 mM LMPC at 0.5 mM by NMR analysis; format: physicochemical; details: 500 µM
[4] = Solubility of the compound in 50:50 DMSO-d6:D2O solution at 1 mM by NMR analysis; format: physicochemical; details: 1000 µM
[5] = Solubility of the compound in 40:40:1 CDCl3:MeOH-d4:D2O at 1 mM by NMR analysis; format: physicochemical; details: 1000 µM
[6] = Solubility of the compound in 10:90 DMSO-d6:D2O solution at 0.5 mM by NMR analysis; format: physicochemical; details: 500 µM
[7] = Solubility in 0.4 mM OG at 0.5 mM by NMR analysis; format: physicochemical; details: 500 µM
[8] = Solubility of the compound in 10:90 MeOH-d4:D2O solution at 0.5 mM by NMR analysis; format: physicochemical; details: 500 µM
[9] = Solubility of the compound in 42:9:49 EtOH-d6:CNCD3:D2O solution at <0.5 mM by NMR analysis; format: physicochemical
[10] = Solubility in 17 mM DHPC at 1 mM by NMR analysis; format: physicochemical; details: 1000 µM
[11] = Solubility in 50 mM OG at 0.5 mM by NMR analysis; format: physicochemical; details: 500 µM
[12] = Solubility of the compound in 5:95 EtOH-d6:D2O solution at 0.5 mM by NMR analysis; format: physicochemical; details: 500 µM
[13] = Solubility of the compound in 5:95 CNCD3-d6:D2O solution at 1 mM by NMR analysis; format: physicochemical; details: 1000 µM
[14] = Solubility of the compound in 5:95 MeOH-d4:D2O solution at 0.5 mM by NMR analysis; format: physicochemical; details: 500 µM
[15] = Solubility in 3 mM DPC at 0.5 mM by NMR analysis; format: physicochemical; details: 500 µM
[16] = Solubility in 4 mM LDAO at 1 mM by NMR analysis; format: physicochemical; details: 1000 µM
[17] = Solubility of the compound in 5:95 EtOH-d6:D2O solution at 1 mM by NMR analysis; format: physicochemical; details: 1000 µM

Sequence of V-type proton ATPase subunit C (Manduca sexta) (Q9U5N1 whole entry): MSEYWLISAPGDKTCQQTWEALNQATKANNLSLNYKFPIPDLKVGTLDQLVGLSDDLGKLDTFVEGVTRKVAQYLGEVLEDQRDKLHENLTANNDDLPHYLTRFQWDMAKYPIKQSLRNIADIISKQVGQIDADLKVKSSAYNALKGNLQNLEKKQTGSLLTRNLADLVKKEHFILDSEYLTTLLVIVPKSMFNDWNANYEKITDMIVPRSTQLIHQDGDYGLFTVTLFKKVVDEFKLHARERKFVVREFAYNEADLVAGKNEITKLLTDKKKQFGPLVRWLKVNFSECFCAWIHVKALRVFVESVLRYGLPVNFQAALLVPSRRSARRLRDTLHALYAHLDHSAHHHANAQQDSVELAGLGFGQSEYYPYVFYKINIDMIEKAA

inhibition [2]	Compound	Activity [1]	solubility [3]	solubility [4]	solubility [5]	solubility [6]	solubility [7]	solubility [8]	solubility [9]	solubility [10]	solubility [11]	solubility [12]	solubility [13]	solubility [14]	solubility [15]	solubility [16]	solubility [17]
–	CNC(=O)O[C@@H](CC(C)C)c1nc([C@H]2OC(=O)/C(C)=C/C/C(C)=C/[C@@H](O[C@@H]3O[C@H](CO)[C@@H](O)[C@H](O)[C@H]3O)[C@@H](C)\C=C(C)/C=C(C)\C=C\[C@@H](O)[C@H](C)[C@H](OC)/C(C)=C/C=C/[C@@H]2C)cs1	inactive	–	–	–	–	–	–	–	–	–	–	–	–	–	–	–
inactive	C=CCOP(=O)(O)CC(=O)O[C@@H]1/C=C/C(C)=C\C(C)=C/[C@H](C)[C@H](OC(=O)CP(=O)(O)OCC=C)/C=C(\C)C/C=C/C(=O)O[C@H](c2csc([C@H](CC(C)C)OC(=O)NC)n2)[C@@H](C)/C=C/C=C(\C)[C@@H](OC)[C@H]1C	–	–	–	–	–	–	–	–	–	–	–	–	–	–	–	–
–	CNC(=O)O[C@@H](CC(C)C)c1nc([C@H]2OC(=O)/C(C)=C/C/C(C)=C/[C@@H](O)[C@@H](C)\C=C(C)/C=C(C)\C=C\[C@@H](O)[C@H](C)[C@H](OC)/C(C)=C/C=C/[C@@H]2C)cs1 [ARCHAZOLID A]	inactive	Insoluble	Insoluble	soluble	Insoluble	Insoluble	Insoluble	Insoluble	Insoluble	Insoluble	Insoluble	Insoluble	Insoluble	Insoluble	Insoluble	Insoluble
